This note sets out measurements from ChEMBL document CHEMBL1129447 (J Med Chem, 1996).

The target in assay [1] is T1, Adenosine receptor A1 (Rattus norvegicus, UniProt P25099).
T1 sequence (P25099 whole entry): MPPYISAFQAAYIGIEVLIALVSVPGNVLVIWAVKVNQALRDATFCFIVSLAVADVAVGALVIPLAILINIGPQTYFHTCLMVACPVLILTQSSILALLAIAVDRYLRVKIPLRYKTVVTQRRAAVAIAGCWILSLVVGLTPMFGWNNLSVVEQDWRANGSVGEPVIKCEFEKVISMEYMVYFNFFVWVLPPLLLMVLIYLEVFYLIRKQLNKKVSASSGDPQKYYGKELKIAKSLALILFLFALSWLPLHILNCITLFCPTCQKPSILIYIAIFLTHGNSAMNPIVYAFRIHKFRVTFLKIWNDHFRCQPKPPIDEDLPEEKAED
In words: Adenosine A1 receptor mediated negative chronotropic activity in spontaneously beating rat atria. Format: functional.

Assay [2] has as its target T1, Adenosine receptor A1.
Description: Displacement of [3H]CHA from Adenosine A1 receptor of rat brain
Assay [3] concerns the target T2, Adenosine receptor A2a (Rattus norvegicus, UniProt P30543).
Description: Vasorelaxation as Adenosine A2A receptor activity in rat aorta
Assay [4] concerns the target T2, Adenosine receptor A2a. This is another data set of the same source.
Description: Displacement of [3H]-CGS- 51680 from Adenosine A2A receptor of rat striatum.

Molecules are shown by their SMILES.

T2 sequence (P30543 whole entry): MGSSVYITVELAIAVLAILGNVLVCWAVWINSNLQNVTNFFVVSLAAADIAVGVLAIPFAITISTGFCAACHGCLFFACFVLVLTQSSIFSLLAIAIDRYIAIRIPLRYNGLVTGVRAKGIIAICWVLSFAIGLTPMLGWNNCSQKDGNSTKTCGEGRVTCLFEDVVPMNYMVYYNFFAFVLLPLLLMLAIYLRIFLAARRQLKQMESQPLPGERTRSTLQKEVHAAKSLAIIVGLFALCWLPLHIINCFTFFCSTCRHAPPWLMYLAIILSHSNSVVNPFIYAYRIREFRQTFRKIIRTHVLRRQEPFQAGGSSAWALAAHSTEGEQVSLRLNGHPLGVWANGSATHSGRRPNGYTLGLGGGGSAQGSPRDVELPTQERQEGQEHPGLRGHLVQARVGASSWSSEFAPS

With `CCNC(=O)[C@H]1O[C@@H](n2cnc3c(N)nc(C#CCCCc4ccccc4)nc32)[C@H](O)[C@@H]1O`, the EC50 (in general, the concentration at which the effect is half-maximal) in assay [1] is more than 1 nM.
As to `CCNC(=O)[C@H]1O[C@@H](n2cnc3c(N)nc(/C=C\CCCc4ccccc4)nc32)[C@H](O)[C@@H]1O`, the Ki (in general, the dissociation constant of the complex between target and ligand, obtained from inhibition or displacement) in assay [2] is more than 1 nM; in assay [4], 51 nM. For the same compound, the concentration giving a half-maximal response (EC50) in assay [3] and in assay [1] was more than 1 nM in each case.
Regarding `CCNC(=O)[C@H]1O[C@@H](n2cnc3c(N)nc(/C=C/c4ccccc4)nc32)[C@H](O)[C@@H]1O`, the figures for the Ki in assay [2] and in assay [4] were 117 nM and 234 nM, respectively. In addition, the 50% effective concentration (EC50) in assay [3] was 194 nM; in assay [1], 420 nM.
For `CCCC/C=C\c1nc(N)c2ncn([C@@H]3O[C@H](CO)[C@@H](O)[C@H]3O)c2n1`, the values for the Ki in assay [2] and in assay [4] were 618 nM and 757 nM, respectively. This compound returned an EC50 in assay [1] of more than 1 nM.
For `CCCC/C=C/c1nc(N)c2ncn([C@@H]3O[C@H](C(=O)NCC)[C@@H](O)[C@H]3O)c2n1`, the inhibitory constant (Ki) in assay [2] was found to be 251 nM; in assay [4] it was 1.6 nM. Also, the values for the EC50 in assay [3] and in assay [1] were 594 nM and more than 1 nM, respectively.
The like results for `CCCCCCc1nc(N)c2ncn([C@@H]3O[C@H](C(=O)NCC)[C@@H](O)[C@H]3O)c2n1` were, in that order, more than 1 nM, 136 nM, 1 nM and more than 1 nM.
For `CCNC(=O)[C@H]1O[C@@H](n2cnc3c(N)nc(C#Cc4ccccc4)nc32)[C@H](O)[C@@H]1O`, the concentration giving a half-maximal response (EC50) in assay [3] and in assay [1] was more than 1 nM throughout.
With `CCNC(=O)[C@H]1O[C@@H](n2cnc3c(N)nc(/C=C/CCCc4ccccc4)nc32)[C@H](O)[C@@H]1O`, the values for the inhibition constant Ki in assay [2] and in assay [4] were 1020 nM and 3.5 nM, respectively. The concentration giving a half-maximal response (EC50) is 576 nM in assay [3] and more than 1 nM in assay [1].
Compound `CCCCC#Cc1nc(N)c2ncn([C@@H]3O[C@H](CO)[C@@H](O)[C@H]3O)c2n1` showed a Ki in assay [2] of 98 nM. For the same compound, the EC50 in assay [1] is more than 1 nM.
`CCCCC#Cc1nc(N)c2ncn([C@@H]3O[C@H](C(=O)NCC)[C@@H](O)[C@H]3O)c2n1`: in assay [1], the EC50 is more than 1 nM.
As for `CCCCCCc1nc(N)c2ncn(C3O[C@H](CO)[C@@H](O)[C@H]3O)c2n1` (stereo partly drawn), the Ki in assay [2] and in assay [4] was more than 1 nM throughout. The compound also returned a concentration for a half-maximal effect (EC50) in assay [1] of more than 1 nM.
As for `CCCC/C=C\c1nc(N)c2ncn(C3O[C@H](C(=O)NCC)[C@@H](O)[C@H]3O)c2n1` (stereo partly drawn), the Ki in assay [2] turned out to be 951 nM; in assay [4], 70 nM. Further, the EC50 was 676 nM in assay [3] and more than 1 nM in assay [1].
Take `CCCC/C=C/c1nc(N)c2ncn([C@@H]3O[C@H](CO)[C@@H](O)[C@H]3O)c2n1`: the inhibitory constant (Ki) turned out to be 332 nM in assay [2] and 14 nM in assay [4].
